Tests used:
Format in all cases: cell-based, human
BT-474 cells [1] = assay: Proliferation assay (MTS), BT-474; conditions: 5 days
Method: (§1) Cells were plated in 96 well plates at a density of 2,500 cells per well and incubated overnight. […] Antibodies were used at a concentration of 50 nM unless otherwise indicated. Dimethyl sulfoxide or phosphate buffered saline (PBS) were used as vehicle controls for lapatinib or HRG-β1/antibodies, respectively. After 5 days of incubation in a 37° C. 5% CO2 incubator, cell proliferation was quantitated using CellTiter 96 AQeous One Solution Proliferation Assay kit (Promega, catalog no. G3580) according to the manufacturer's instructions.

SK-BR-3 cells [2] = assay: Flow cytometry of cell surface HER2 and HER3, SK-BR-3; conditions: 1 μM lapatinib, 24 hours
Method: (§2) Cells were treated with 1 μM lapatinib (Lap), medium (Med) or vehicle control (DMSO) for 24 hours.
(§3) The methodology used to determine HER2 and HER3 levels by flowcytometry is as follows, unless otherwise indicated. Antibodies were labeled with either Alexa Fluor® 647 carboxylic acid, succinimidyl ester (Life Technologies, Catalog # A-20173) or Alexa Fluor® 488 carboxylic acid, succinimidyl ester (Life Technologies, Catalog # A-10235) using methods recommended by the manufacturer. Following the labeling reaction, antibodies were extensively dialyzed against PBS to remove unincorporated Alexa dye. Cells were seeded at a density of 100,000 cells per well in 24 well plates, incubated overnight, and subsequently treated with either 1 μM lapatinib or vehicle control (DMSO) for 24 hours at 37° C. in a CO2 incubator. […] Following incubation, cells were trypsinized, washed, and suspended in PBS. Stained cells were analyzed using a BD FACScalibur and data processed using FlowJo (Tree Star).

BT-474 cells [3] = assay: Immunoblotting of cell lysates, BT-474
Method: (§4) Cells cultured to near confluence in 6 well plates were treated with lapatinib, HRG-β1 or antibodies as for proliferation assays. Following one or 24 hours incubation, cells were lysed using RIPA buffer (50 mM Tris, 150 mM NaCl, 0.5% sodium deoxycholate, 1% Triton X-100, 0.1% sodium dodecyl sulfate, 2 ug/mL aprotinin, 2 ug/mL leupeptin, 1 ug/mL pepstatin A, and 0.4 mg/mL pefabloc SC PLUS). Lysates were centrifuged for 20 minutes at 14,600 rpm at 4° C. and supernatants were collected. Protein concentrations in each lysate were determined using the BCA protein assay reagent (Pierce, catalog no. 23223). Total lysates were fractionated by SDS-PAGE and transferred onto polyvinylidene difluoride (PVDF) membranes (Millipore, catalog no. IPVH00010) or nitrocellulose membranes (Bio-Rad, catalog no 162.0145). Membranes were incubated with 5% bovine serum albumin in Tris-buffered saline with 0.1% Tween (TBST, pH 8.0) for 1 hour following transfer to block non-specific binding sites. Blocked membranes were incubated with primary antibodies overnight at 4° C. with agitation. Prior to incubation with the secondary antibodies conjugated to horseradish peroxidase, blots were washed three times (10 minutes/wash) with TB ST. Following incubation with secondary antibodies for 1 hour and washing, bound secondary antibody was detected using chemiluminescent detection regent (GE Healthcare, catalog no. RPN 2209/AF).

SK-BR-3 cells [4] = assay: Proliferation assay (MTS), SK-BR-3; conditions: 5 days
Method: as §1

SK-BR-3 cells [5] = assay: Immunoblotting of cell lysates, SK-BR-3
Method: as §4

BT-474 cells [6] = assay: Flow cytometry of cell surface HER2 and HER3, BT-474; conditions: 1 μM lapatinib, 24 hours
Method: as §2, §3

HCC1419 cells = assay: Proliferation assay (MTS), HCC1419; conditions: 5 days
Method: as §1

SK-BR-3 cells [7] = assay: Fluorescence microscopy of intracellular trafficking; conditions: 50 nM
Description: The combined pulse plus chase times are indicated on the left margin. Anti-HER3 or HER2/HER3 antibodies were detected with Alexa 555-labeled secondary antibody (pseudocolored red in overlay) and anti-EEA-1 antibody with Alexa 647-labeled secondary antibody (pseudocolored green in overlay). […] Scale bars=2 μm.
Cells were fixed, permeabilized and stained for LAMP-1. Anti-HER3 or HER2/HER3 antibodies were detected with Alexa 555-labeled secondary antibody (pseudocolored red in overlay) and anti-LAMP-1 antibody with Alexa 488-labeled secondary antibody (pseudocolored green in overlay). […] Scale bars=2 μm.
For fixation, cells were treated with 1.7% (w/v) paraformaldehyde for 10 minutes at 37° C. and then permeabilized with 0.05% (v/v) saponin for 10 minutes at room temperature in PBS. […] After blocking for 30 minutes with goat serum (Sigma-Aldrich, catalog no. G6767), bound primary antibodies were detected by incubating cells with the following secondary antibody conjugates for 25 minutes at room temperature: Alexa 555-labeled goat anti-human IgG (H+L) (Life Technologies, catalog no. A21433), Alexa 647-labeled goat anti-mouse IgG (H+L) (Life Technologies, catalog no. A21236) and Alexa 488-labeled goat anti-rabbit IgG (H+L) (Life Technologies, catalog no. A11034). […]

[8] = lapatinib 50 nM-1 μM, no heregulin
[9] = 1 μM lapatinib + heregulin 6.25 nM
[10] = 50 nM antibody + heregulin 6.25 nM
[11] = 50 nM antibody + 1 μM lapatinib + heregulin 6.25 nM
[12] = 50 nM antibody, no heregulin, no lapatinib
[13] = 50 nM antibody, one hour, versus trastuzumab, pertuzumab, TAb6 or PAb6, not sustained at 24 hours

CS(=O)(=O)CCNCc1ccc(-c2ccc3ncnc(Nc4ccc(OCc5cccc(F)c5)c(Cl)c4)c3c2)o1 [lapatinib, reference compound]
proliferation, lapatinib alone (BT-474 cells [1]; [8]): inhibition of proliferation
proliferation, lapatinib plus heregulin (BT-474 cells [1]; lapatinib + heregulin 6.25 nM): growth inhibition was ablated
HER2 levels on the plasma membrane (SK-BR-3 cells [2]): upregulation
HER3 levels on the plasma membrane (SK-BR-3 cells [2]): upregulation
inhibition of HER3, Akt and Erk phosphorylation, lapatinib plus heregulin (BT-474 cells [3]; [9]): partially reversed
HER3, Akt and Erk phosphorylation, lapatinib alone (BT-474 cells [3]; 1 μM lapatinib, 1 or 24 hours): potent inhibition
proliferation, lapatinib alone (SK-BR-3 cells [4]; [8]): inhibition of proliferation
proliferation, lapatinib plus heregulin (SK-BR-3 cells [4]; lapatinib + heregulin 6.25 nM): growth inhibition was ablated
inhibition of HER3, Akt and Erk phosphorylation, lapatinib plus heregulin (SK-BR-3 cells [5]; [9]): partially reversed
HER3, Akt and Erk phosphorylation, lapatinib alone (SK-BR-3 cells [5]; 1 μM lapatinib, 1 or 24 hours): potent inhibition
HER2 levels on the plasma membrane (BT-474 cells [6]): not upregulated
HER3 levels on the plasma membrane (BT-474 cells [6]): upregulation

heregulin [reference compound]
proliferation in the presence of heregulin alone (BT-474 cells [1]; heregulin 6.25 nM): trend towards heregulin-stimulated proliferation
proliferation in the presence of heregulin alone (SK-BR-3 cells [4]; [10]): reduced proliferation
proliferation in the presence of heregulin alone (HCC1419 cells; heregulin 6.25 nM): increased proliferation

B1: Ab6: bivalent anti-HER3 antibody which competes with heregulin for binding to HER3 (antibody, V domains shown)
VH: QVQLLESGGGLVQPGGSLRLSCAASGFTFSHYVMAWVRQAPGKGLEWVSSISSSGGWTLYADSVKGRFTISRDNSKNTLYLQMNSLRAEDTAVYYCTRGLKMATIFDYWGQGTLVTVSS
VL: DIQLTQPASVSGSPGQSITISCTGTSSDVGSYNVVSWYQQHPGKAPKLIIYEVSQRPSGVSNRFSGSKSGNTASLTISGLQTEDEADYYCCSYAGSSIFVIFGGGTKVTVL
proliferation in the presence of heregulin and lapatinib (BT-474 cells [1]; [11]): anti-proliferative effects
proliferation in the presence of heregulin (BT-474 cells [1]; [10]): ablated the inhibitory effects
proliferation (BT-474 cells [1]; [12]): the effects were not significant
pErk levels at one hour (BT-474 cells [3]; [13]): lower
proliferation in the presence of heregulin and lapatinib (SK-BR-3 cells [4]; [11]): anti-proliferative effects
proliferation (SK-BR-3 cells [4]; [12]): reduced proliferation
pAkt levels in the presence of heregulin (SK-BR-3 cells [5]; 50 nM antibody + heregulin 6.25 nM, 24 hours): a reduction
pErk levels at one hour (SK-BR-3 cells [5]; [13]): lower
localization following 15 minutes of treatment (SK-BR-3 cells [7]): internalized into early endosomes
localization within one hour of treatment (SK-BR-3 cells [7]; 15 minutes pulse, 45 minutes chase): present in LAMP-1+ lysosomes
proliferation in the presence of heregulin and lapatinib (HCC1419 cells; [11]): anti-proliferative effects
proliferation in the presence of heregulin (HCC1419 cells; [10]): ablated the inhibitory effects
proliferation (HCC1419 cells; [12]): reduced proliferation
